Consider twelve compounds from ChEMBL document CHEMBL1201862, “PubChem BioAssay data set” (2004).

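Each compound was tested at five concentrations against cells in 96-well plates for 48 hours. GI50 = concentration required for 50% inhibition of growth.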 Calls of active or inactive are those of the source. Rule as the data show it: active = GI50 up to about 1.1 µM and inactive = higher.

Some test systems named below: ACHN; LOX IMVI; KM12; HCT-15; UACC-257; SNB-19; SK-OV-3; OVCAR-5; SF-268; SF-295; HOP-92; RXF 393; OVCAR-3; HOP-62; Hs-578T; OVCAR-4; NCI/ADR-RES; TK-10; A498.
Holding throughout (experiment): inhibition of tumour cell growth, NCI panel, 48 h

With `C#CCC[C@@H]1O[C@@]1(C)CC/C=C(\C)CC/C=C/C=O`, the GI50 with ACHN is 50.1 µM (inactive); with LOX IMVI, 18.4 µM (inactive); in the assay on KM12, 36.9 µM (inactive); in the assay with HCT-15 it was 35 µM; with UACC-257, 23.6 µM (inactive); in the assay with SNB-19, 45.1 µM (inactive). Further, the GI50 is > 100 µM (inactive) in the assay on SK-OV-3; > 100 µM (inactive) in the assay with OVCAR-5; 22.2 µM (inactive) in the assay with SF-268; 26.5 µM (inactive) in the assay with SF-295; 28.5 µM (inactive) in the assay on HOP-92; 40.6 µM (inactive) with RXF 393. For the same compound, the GI50 with OVCAR-3 is 29.8 µM (inactive); with HOP-62, > 100 µM (inactive).

For `OCN(CO)c1ccc2c(c1)Cc1cc(F)ccc1-2`, the GI50 was 17.6 µM (inactive) in the assay on ACHN; 17.9 µM (inactive) in the assay on LOX IMVI; 12 µM (inactive) with Hs-578T; 17.8 µM (inactive) in the assay with KM12; 17.8 µM (inactive) with OVCAR-4; 19.2 µM with HCT-15. For the same compound, the GI50 in the assay on UACC-257 is 18.7 µM (inactive); in the assay on SNB-19, 17.9 µM (inactive); in the assay with SK-OV-3, 25.2 µM (inactive); with OVCAR-5 it was 19.1 µM (inactive); in the assay on NCI/ADR-RES, 20.2 µM (inactive); in the assay with SF-268, 23.8 µM (inactive). For the same compound, the GI50 in the assay on SF-295 is 15.3 µM (inactive); in the assay on RXF 393, 24 µM (inactive); with OVCAR-3, 13.9 µM (inactive); in the assay with TK-10, 18.7 µM (inactive); in the assay with HOP-62, 44.1 µM (inactive).

On to `O=c1c2nn[nH]c2nc2n1CC(c1ccccc1)S2` (centres undefined), for which the GI50 in the assay with ACHN was > 100 µM (inactive); with LOX IMVI it was > 100 µM (inactive); in the assay on KM12, > 100 µM (inactive); in the assay with OVCAR-4, > 100 µM (inactive); in the assay on HCT-15 it was > 100 µM; with UACC-257, > 100 µM (inactive). Further, the GI50 in the assay with SNB-19, in the assay on SK-OV-3, in the assay with OVCAR-5, in the assay on A498, with NCI/ADR-RES and in the assay on SF-268 was > 100 µM (inactive) each time. Further, the GI50 is > 100 µM (inactive) in the assay on SF-295; 29 µM (inactive) with RXF 393; > 100 µM (inactive) with OVCAR-3; > 100 µM (inactive) in the assay with TK-10; > 100 µM (inactive) in the assay on HOP-62.

For `COc1ccccc1/C=C1\SC(=S)N(/C=C2\C(=O)Oc3ccccc3C2=O)C1=O`, the GI50 in the assay with ACHN is 47.5 µM (inactive); with LOX IMVI it was 34.9 µM (inactive); with Hs-578T it was 33.5 µM (inactive); in the assay on KM12, 34.3 µM (inactive); in the assay with OVCAR-4 it was 33.2 µM (inactive); in the assay with HCT-15 it was 28.1 µM. Further, the GI50 in the assay with UACC-257 was 22.9 µM (inactive); in the assay on SNB-19, 32.7 µM (inactive); with SK-OV-3, 23 µM (inactive); in the assay with OVCAR-5, 59.8 µM (inactive); with NCI/ADR-RES, 29.3 µM (inactive); with SF-268, 33.3 µM (inactive). The GI50 in the assay on HOP-92 is 18.4 µM (inactive); with OVCAR-3 it was 19.8 µM (inactive); in the assay on TK-10 it was 28.1 µM (inactive).

For the compound `CCN(CC)c1ccc(/N=N\c2ccc(-c3nc4ccc[n+](C)c4s3)cc2)cc1`, the GI50 in the assay on LOX IMVI is 0.423 µM (active); in the assay with KM12, 2.76 µM (inactive); with OVCAR-4, 6.5 µM (inactive); with HCT-15 it was 16.7 µM; in the assay with UACC-257, 5.01 µM (inactive); in the assay on SNB-19, 5.3 µM (inactive). In addition, the GI50 with SK-OV-3 is 16.1 µM (inactive); in the assay with OVCAR-5 it was 17.1 µM (inactive); in the assay on A498, 13.4 µM (inactive); with SF-268 it was 6.07 µM (inactive); with SF-295 it was 17.8 µM (inactive); with HOP-92, 10.6 µM (inactive). The GI50 is > 10 µM (inactive) in the assay with RXF 393, 3.53 µM (inactive) with OVCAR-3, 20 µM (inactive) in the assay with TK-10 and 17.3 µM (inactive) in the assay with HOP-62.

Regarding `COc1nc2ccc(COc3ccc(C(=O)O)cc3)cc2nc1OC`, the GI50 in the assay with ACHN was 80.4 µM (inactive); in the assay on LOX IMVI, 54.1 µM (inactive); in the assay with KM12, > 100 µM (inactive); in the assay with OVCAR-4, > 100 µM (inactive); in the assay on HCT-15, 65.6 µM; with UACC-257, > 100 µM (inactive). Further, the GI50 in the assay with SNB-19 is > 100 µM (inactive); in the assay on SK-OV-3, > 100 µM (inactive); in the assay with OVCAR-5 it was > 100 µM (inactive); with A498, 95.7 µM (inactive); in the assay on NCI/ADR-RES it was 88.1 µM (inactive); in the assay with SF-268, 82 µM (inactive). The GI50 in the assay on SF-295 is 32.9 µM (inactive); with HOP-92 it was 47.5 µM (inactive); in the assay on OVCAR-3, > 100 µM (inactive); with HOP-62, > 100 µM (inactive).

`C=C(C)C(=O)OC1C/C(CO)=C\C(O)C/C(C)=C/C2OC(=O)C(=C)C21` (centres undefined): the GI50 is 21.3 µM (inactive) in the assay with ACHN; 18.5 µM (inactive) in the assay on LOX IMVI; 19.2 µM (inactive) in the assay with KM12; 25.9 µM (inactive) in the assay with OVCAR-4; 14.1 µM in the assay on HCT-15; > 100 µM (inactive) with SNB-19. Moreover, the GI50 with SK-OV-3 is > 100 µM (inactive); in the assay on OVCAR-5, 45.8 µM (inactive); in the assay with SF-268, 22.2 µM (inactive); in the assay with SF-295, > 100 µM (inactive); with HOP-92 it was 20.8 µM (inactive); in the assay with OVCAR-3, 25.1 µM (inactive). Besides, the GI50 in the assay with TK-10 is 21.1 µM (inactive); in the assay on HOP-62, > 100 µM (inactive).

Turning to `CC(C)(C)[Si](C)(C)OCC1OC(n2ccc(=O)[nH]c2=O)C(O[Si](C)(C)C(C)(C)C)/C1=N/O` (centres undefined), the GI50 is 3.2 µM (inactive) with ACHN; 4.67 µM (inactive) in the assay on LOX IMVI; 3.54 µM (inactive) in the assay on KM12; 4.25 µM (inactive) in the assay with OVCAR-4; 3.26 µM in the assay on HCT-15; 4.17 µM (inactive) in the assay on UACC-257. For the same compound, the GI50 was 4.49 µM (inactive) with SNB-19; 6.41 µM (inactive) in the assay on SK-OV-3; 3.9 µM (inactive) in the assay on OVCAR-5; 4.97 µM (inactive) in the assay with A498; 2.49 µM (inactive) in the assay with NCI/ADR-RES; 4.74 µM (inactive) in the assay on SF-295. Also, the GI50 in the assay with HOP-92 is 2.77 µM (inactive); in the assay on RXF 393, 8.39 µM (inactive); in the assay on OVCAR-3, 8.67 µM (inactive); in the assay with TK-10 it was 6.68 µM (inactive); in the assay on HOP-62, 4.63 µM (inactive).

On to `COc1ccc(C(=O)N2CCN(c3ccc4c(c3)OCC(=O)N4)CC2)cc1`, for which the GI50 with ACHN is > 100 µM (inactive); in the assay with LOX IMVI it was > 100 µM (inactive); in the assay on Hs-578T it was > 100 µM (inactive); with KM12 it was > 100 µM (inactive); in the assay with OVCAR-4, > 100 µM (inactive); in the assay with HCT-15, > 100 µM. For the same compound, the GI50 in the assay on UACC-257, in the assay with SNB-19, in the assay on SK-OV-3, in the assay with OVCAR-5, in the assay with NCI/ADR-RES and in the assay on SF-268 was > 100 µM (inactive) each time. In addition, the GI50 with SF-295, in the assay with HOP-92, with OVCAR-3, with TK-10 and in the assay with HOP-62 was > 100 µM (inactive) in each case.

`COC(=O)CCC(NC(=O)C(C)NC(=O)COC1C(O)C(OC(=O)CCNc2c3ccccc3nc3cccc([N+](=O)[O-])c23)OC(OCc2ccccc2)C1NC(C)=O)C(N)=O` (centres undefined): the GI50 is 3.61 µM (inactive) with ACHN; > 10 µM (inactive) in the assay with LOX IMVI; > 10 µM (inactive) with Hs-578T; 5.71 µM (inactive) with KM12; 3.21 µM in the assay on HCT-15; > 10 µM (inactive) in the assay with UACC-257. Further, the GI50 in the assay on SNB-19 was 5.36 µM (inactive); in the assay on SK-OV-3 it was > 10 µM (inactive); with OVCAR-5 it was > 10 µM (inactive); with A498, > 10 µM (inactive); with SF-268 it was 7.26 µM (inactive); in the assay with SF-295, > 10 µM (inactive). Moreover, the GI50 is 4.43 µM (inactive) in the assay with HOP-92; 3.05 µM (inactive) with RXF 393; 5.42 µM (inactive) in the assay with OVCAR-3; > 10 µM (inactive) in the assay with TK-10; 3.7 µM (inactive) with HOP-62.

On to `C/C(=C1/N=C(c2ccccc2)OC1=O)c1ccc(C)cc1`, for which the GI50 was > 100 µM (inactive) in the assay with ACHN; > 100 µM (inactive) in the assay on LOX IMVI; > 100 µM (inactive) with Hs-578T; > 100 µM (inactive) in the assay with KM12; > 100 µM (inactive) in the assay with OVCAR-4; > 100 µM in the assay on HCT-15. In addition, the GI50 in the assay with UACC-257, with SNB-19, in the assay on SK-OV-3, in the assay on OVCAR-5, in the assay with A498 and in the assay on SF-268 was > 100 µM (inactive) in each case. The GI50 with SF-295, in the assay on HOP-92, in the assay on RXF 393, in the assay on OVCAR-3, in the assay with TK-10 and in the assay on HOP-62 was > 100 µM (inactive) in each case.

As to `CC1(C)OC(C(C)(C)O)C(C(C)(C)O)O1` (centres undefined), the GI50 is > 100 µM (inactive) in the assay on ACHN; > 100 µM (inactive) with LOX IMVI; > 100 µM (inactive) in the assay with Hs-578T; > 100 µM (inactive) with KM12; > 100 µM (inactive) with OVCAR-4; > 100 µM with HCT-15. The GI50 with UACC-257, in the assay with SNB-19, in the assay on SK-OV-3, with OVCAR-5, in the assay with NCI/ADR-RES and in the assay on SF-268 was > 100 µM (inactive) in each case. The GI50 in the assay with SF-295 is > 100 µM (inactive); in the assay on RXF 393 it was 39 µM (inactive); with TK-10, > 100 µM (inactive); with HOP-62, > 100 µM (inactive).
